The results in this text go back to patent US20100256357A1, “HETEROCYCLES USEFUL AS INHIBITORS OF CARBONIC ANHYDRASE” (Agouron Pharmaceuticals, Inc., priority 2006, published 2010).

Where two headings read alike, the source gives them in different places.

For the experiment, the target named is T1, human CA-II (Homo sapiens, UniProt P00918).
T1 construct: purchased Sigma-Aldrich C6165
Description: Carbonic Anhydrase-II (CA-II) Fluorimetric Assay-IC50 Determination. Type of experiment: biochemical. The note with it: for inhibition at 0.1 µM: at 100 nM (c7); for inhibition at 0.1 µM / inhibition at 0.01 µM: read-out: CA-II % inhibition at concentration of column 7; for inhibition at 0.01 µM: at 10 nM (c7). How it is done:
Carbonic Anhydrase-II (CA-II) Fluorimetric Assay-IC50 Determination
Compounds were diluted in DMSO at the concentration of 1 mM, then 50 μM and transferred to a 96-well plate for further dilutions (1:3 dilution, 11 points) in duplicate. Highest final concentration of compound in this CA-II Fluorimetric assay is 1 μM. Assays were conducted in a final volume of 100 μL in 50 mM Tris/HCl (pH 7.6), 100 mM Na2SO4 and 0.005% Tween-20 in a 96-well black assay plate. Fluorescein diacetate was used as the substrate. Enzyme inhibition was determined by pipetting 8 μL of human CA-II (5 nM, from Sigma-Aldrich, product #: C6165) into assay plate contained 2 μL of compound and 2 μL of substrate (10 μM) in 88 μL of assay buffer. The rate of the hydrolysis of fluorescein diacetate were measured spectrophometrically at 488 nm (excitation), 538 nm (emission) and 530 nm (cutoff) using a Molecular Devices SpectraMax M2 fluorescence reader at 25° C.

Where [1] appears, read: given instead of Kd (ND), read-out: CA-II IC50.
[2] abbreviates: Kd ND, IC50 given instead, read-out: CA-II IC50 (where Kd is ND).

For `CCCN(C(=O)c1nc(Cc2ccccc2)n(-c2ccc(S(N)(=O)=O)cc2)n1)[C@@H](C)CO` [Example R-29, 1-[4-(aminosulfonyl)phenyl]-5-benzyl-N-[(1S)-2-hydroxy-1-methylethyl]-N-propyl-1H-124-triazole-3-carboxamide], the inhibition at 0.1 µM turned out to be 98%.

What is called IC50 is the concentration that gives 50% inhibition. Consider `CCc1nc(CN(C)C(=O)c2nc(Cc3ccccc3)n(-c3ccc(S(N)(=O)=O)cc3)n2)no1` [Example R-70, 1-[4-(aminosulfonyl)phenyl]-5-benzyl-N-[(5-ethyl-124-oxadiazol-3-yl)methyl]-N-methyl-1H-124-triazole-3-carboxamide], for which the inhibition at 0.01 µM stood at 94%. Further, under setting [1], the IC50 came to 3.06 nM. `CN(CC(F)(F)F)C(=O)c1nc(Cc2ccccc2)n(-c2ccc(S(N)(=O)=O)cc2)n1` [Example R-101, 1-[4-(aminosulfonyl)phenyl]-5-benzyl-N-methyl-N-(222-trifluoroethyl)-1H-124-triazole-3-carboxamide]: the IC50 under setting [2] turned out to be 3.48 nM. `NS(=O)(=O)c1ccc(-n2nc(C(=O)N3CCOCC3)nc2Cc2ccccc2)cc1` [Example R-32, 4-[5-benzyl-3-(morpholin-4-ylcarbonyl)-1H-124-triazol-1-yl]benzenesulfonamide]: the inhibition at 0.1 µM came out at 98%. Besides, the IC50 under setting [1] is 3.56 nM.

Regarding `NS(=O)(=O)c1ccc(-n2nc(C(=O)N3CCc4nocc4C3)nc2Cc2ccccc2)cc1` [Example R-57, 4-[5-benzyl-3-(67-dihydroisoxazolo[43-c]pyridin-5(4H)-ylcarbonyl)-1H-124-triazol-1-yl]benzenesulfonamide], the inhibition at 0.01 µM came out at 96%. Turning to `CCN(CCN(C)C)C(=O)c1nc(Cc2ccccc2)n(-c2ccc(S(N)(=O)=O)cc2)n1` [Example R-43, 1-[4-(aminosulfonyl)phenyl]-5-benzyl-N-[2-(dimethylamino)ethyl]-N-ethyl-1H-124-triazole-3-carboxamide], the inhibition at 0.1 µM came to 100%.

In the case of `Cc1cc(CN(C)C(=O)c2nc(Cc3ccccc3)n(-c3ccc(S(N)(=O)=O)cc3)n2)n[nH]1` [Example R-50, 1-[4-(aminosulfonyl)phenyl]-5-benzyl-N-methyl-N-[(5-methyl-1H-pyrazol-3-yl)methyl]-1H-124-triazole-3-carboxamide], the inhibition at 0.01 µM was found to be 95%.

On to `N#CCCN(C(=O)c1nc(Cc2ccccc2)n(-c2ccc(S(N)(=O)=O)cc2)n1)C1CCCC1` [Example R-74, 1-[4-(aminosulfonyl)phenyl]-5-benzyl-N-(2-cyanoethyl)-N-cyclopentyl-1H-124-triazole-3-carboxamide], for which, under setting [2], the IC50 is 3.43 nM. Regarding `CCN(CC)CCN(CC)C(=O)c1nc(Cc2ccccc2)n(-c2ccc(S(N)(=O)=O)cc2)n1` [Example R-39, 1-[4-(aminosulfonyl)phenyl]-5-benzyl-N-[2-(diethylamino)ethyl]-N-ethyl-1H-124-triazole-3-carboxamide], the inhibition at 0.1 µM amounted to 97%. In addition, under setting [1], the IC50 is 3.62 nM. For `CN(Cc1nc2ccc(F)cc2[nH]1)C(=O)c1nc(Cc2ccccc2)n(-c2ccc(S(N)(=O)=O)cc2)n1` [Example R-49, 1-[4-(aminosulfonyl)phenyl]-5-benzyl-N-[(6-fluoro-1H-benzimidazol-2-yl)methyl]-N-methyl-1H-124-triazole-3-carboxamide], the inhibition at 0.01 µM was 96%. Still for that read-out and setting: then `CN(CCc1cn[nH]c1)C(=O)c1nc(Cc2ccccc2)n(-c2ccc(S(N)(=O)=O)cc2)n1` [Example R-62, 1-[4-(aminosulfonyl)phenyl]-5-benzyl-N-methyl-N-[2-(1H-pyrazol-4-yl)ethyl]-1H-124-triazole-3-carboxamide], with 96%. For `CN(CCOc1ccccc1)C(=O)c1nc(Cc2ccccc2)n(-c2ccc(S(N)(=O)=O)cc2)n1` [Example R-42, 1-[4-(aminosulfonyl)phenyl]-5-benzyl-N-methyl-N-(2-phenoxyethyl)-1H-124-triazole-3-carboxamide], the inhibition at 0.1 µM came to 98%. For the same compound, under setting [1], the IC50 stood at 3.78 nM. For the compound `CCCN(CCc1ccccn1)C(=O)c1nc(Cc2ccccc2)n(-c2ccc(S(N)(=O)=O)cc2)n1` [Example R-58, 1-[4-(aminosulfonyl)phenyl]-5-benzyl-N-propyl-N-(2-pyridin-2-ylethyl)-1H-124-triazole-3-carboxamide], the inhibition at 0.01 µM turned out to be 98%. Turning to `CN(C(=O)c1nc(Cc2ccccc2)n(-c2ccc(S(N)(=O)=O)cc2)n1)C1CCCC1` [Example R-30, 1-[4-(aminosulfonyl)phenyl]-5-benzyl-N-cyclopentyl-N-methyl-1H-124-triazole-3-carboxamide], the inhibition at 0.1 µM came to 100%. Also, under setting [1], the IC50 was found to be 2.45 nM. On to `CC(C)C1CCCCN1C(=O)c1nc(Cc2ccccc2)n(-c2ccc(S(N)(=O)=O)cc2)n1` (stereo not shown) [Example R-104], for which the IC50 under setting [2] was 3.51 nM. On to `CN(CC(C)(O)c1ccccc1)C(=O)c1nc(Cc2ccccc2)n(-c2ccc(S(N)(=O)=O)cc2)n1` (stereo not shown) [Example R-54, 1-[4-(aminosulfonyl)phenyl]-5-benzyl-N-(2-hydroxy-2-phenylpropyl)-N-methyl-1H-124-triazole-3-carboxamide], for which the inhibition at 0.01 µM worked out at 97%. For the compound `CC(C)CCN(C)C(=O)c1nc(Cc2ccccc2)n(-c2ccc(S(N)(=O)=O)cc2)n1` [Example R-31, 1-[4-(aminosulfonyl)phenyl]-5-benzyl-N-methyl-N-(3-methylbutyl)-1H-124-triazole-3-carboxamide], the inhibition at 0.1 µM came out at 100%. For the same compound, the half-inhibitory concentration (IC50) under setting [1] turned out to be 3.03 nM. Turning to `NS(=O)(=O)c1ccc(-n2nc(C(=O)NC3Cc4ccccc4C3)nc2Cc2ccccc2)cc1` [Example R-33, 1-[4-(aminosulfonyl)phenyl]-5-benzyl-N-(23-dihydro-1H-inden-2-yl)-1H-124-triazole-3-carboxamide], the inhibition at 0.1 µM is 101%. As to `CC(C)N(CC(O)c1ccccc1)C(=O)c1nc(Cc2ccccc2)n(-c2ccc(S(N)(=O)=O)cc2)n1` (stereo not shown) [Example R-45, 1-[4-(aminosulfonyl)phenyl]-5-benzyl-N-(2-hydroxy-2-phenylethyl)-N-isopropyl-1H-124-triazole-3-carboxamide], the inhibition at 0.01 µM stood at 95%.

`CCCCN(CCC)C(=O)c1nc(Cc2ccccc2)n(-c2ccc(S(N)(=O)=O)cc2)n1` [Example R-36, 1-[4-(aminosulfonyl)phenyl]-5-benzyl-N-butyl-N-propyl-1H-124-triazole-3-carboxamide]: the inhibition at 0.1 µM is 100%. The IC50 under setting [1] was 3.12 nM.

Take `CCCN(CC1CCCO1)C(=O)c1nc(Cc2ccccc2)n(-c2ccc(S(N)(=O)=O)cc2)n1` (stereo not shown) [Example R-95, 1-[4-(aminosulfonyl)phenyl]-5-benzyl-N-propyl-N-(tetrahydrofuran-2-ylmethyl)-1H-124-triazole-3-carboxamide]: the IC50 under setting [2] was found to be 3.35 nM.

As for `CCN(CCOC)C(=O)c1nc(Cc2ccccc2)n(-c2ccc(S(N)(=O)=O)cc2)n1` [Example R-34, 1-[4-(aminosulfonyl)phenyl]-5-benzyl-N-ethyl-N-(2-methoxyethyl)-1H-124-triazole-3-carboxamide], the inhibition at 0.1 µM was 99%. In addition, the half-maximal inhibitory concentration (IC50) under setting [1] was 2.99 nM. On to `CN(CCc1ccccc1)C(=O)c1nc(Cc2ccccc2)n(-c2ccc(S(N)(=O)=O)cc2)n1` [Example R-48, 1-[4-(aminosulfonyl)phenyl]-5-benzyl-N-methyl-N-(2-phenylethyl)-1H-124-triazole-3-carboxamide], for which the inhibition at 0.01 µM amounted to 97%. For `NS(=O)(=O)c1ccc(-n2nc(C(=O)N3CCCN(C=O)CC3)nc2Cc2ccccc2)cc1` [Example R-27, 4-(5-benzyl-3-[(4-formyl-14-diazepan-1-yl)carbonyl]-1H-124-triazol-1-yl)benzenesulfonamide], the inhibition at 0.1 µM was determined as 99%. As for `CC(C)C1(CO)CCN(C(=O)c2nc(Cc3ccccc3)n(-c3ccc(S(N)(=O)=O)cc3)n2)CC1` [Example R-73, 4-(5-benzyl-3-{[4-(hydroxymethyl)-4-isopropylpiperidin-1-yl]carbonyl}-1H-124-triazol-1-yl)benzenesulfonamide], the IC50 under setting [2] is 3.5 nM. Take `CC(C)CN(CC(C)C)C(=O)c1nc(Cc2ccccc2)n(-c2ccc(S(N)(=O)=O)cc2)n1` [Example R-40, 1-[4-(aminosulfonyl)phenyl]-5-benzyl-NN-diisobutyl-1H-124-triazole-3-carboxamide]: the inhibition at 0.1 µM was determined as 98%. Besides, the IC50 under setting [1] was 3.34 nM. Regarding `NS(=O)(=O)c1ccc(-n2nc(C(=O)N3CCc4ccccc4C3)nc2Cc2ccccc2)cc1` [Example R-52, 4-[5-benzyl-3-(34-dihydroisoqionolin-2(1H)-ylcarbonyl)-1H-124-triazol-1-yl]benzenesulfonamide], the inhibition at 0.01 µM amounted to 96%. In addition, the IC50 under setting [1] was determined as 2.83 nM. For `Cc1csc(CN(C)C(=O)c2nc(Cc3ccccc3)n(-c3ccc(S(N)(=O)=O)cc3)n2)n1` [Example R-56, 1-[4-(aminosulfonyl)phenyl]-5-benzyl-N-methyl-N-[(4-methyl-13-thiazol-2-yl)methyl]-1H-124-triazole-3-carboxamide], the inhibition at 0.01 µM stood at 95%. As to `NS(=O)(=O)c1ccc(-n2nc(C(=O)N3CCCC(c4cc[nH]n4)C3)nc2Cc2ccccc2)cc1` (stereo not shown) [Example R-67, 4-(5-benzyl-3-{[3-(1H-pyrazol-3-yl)piperidin-1-yl]carbonyl}-1H-124-triazol-1-yl)benzenesulfonamide], the inhibition at 0.01 µM was 97%. The IC50 under setting [1] stood at 3.72 nM.
